Read-outs that look alike come from different tables or passages of the source.
What was measured:
[1] = tested on: mLF primary lung fibroblasts; assay: Anti-senescent cytotoxicity, senescent vs proliferating mLF; type: cell-based, Mouse; conditions: for IC50: Mus musculus, Primary lung fibroblast
Description: (§1) For generation senescent human neonatal dermal fibroblasts (NDFs) and adult rat dermal fibroblasts (RDFs), cells are treated at ˜10 ug/ml bleomycin for 3 days (for bleomycin-induced senescence) or irradiated once at 20 Gy using a gamma irradiator (Cs source), followed by at least 7 day recovery in fresh medium for induction of senescence. Senescent and non-senescent (proliferating) cells for each cell line are plated into 384-w plate, followed by 72 hour exposure to a dose titration of compounds. Viability measurements are estimated using the resazurin viability assay. Using GraphPad Prism 5, the IC50 values are calculated from the non-linear regression of log-transformed compound concentrations versus dose-response normalized to background and non-treated controls.
Anti-senescent selectivity is observed in primary human dermal fibroblasts (NDFs) induced to senescence via genotoxic stress, oxidative stress and replicative stress. In addition, human, rat and mouse cells senesced via bleomycin and irradiation all show sensitivity towards A1.1 treatment compared to A1.1-treated naïve cell controls.

[2] = tested on: adult rat dermal fibroblasts (RDF); assay: Resazurin viability assay, senescent vs proliferating rat dermal fibroblasts; type: cell-based; conditions: for IC50: Rattus norvegicus, Fibroblast
Description: Cytotoxicity of A1.1 analogs against bleomycin-induced senescent human NDFs and rat dermal fibroblasts (RDFs). Activity of analogs was assessed from dose-response curves against irradiation- or bleomycin-induced senescent and proliferating cells to calculate IC50s (uM). The fold difference of proliferating versus senescent cell IC50s was used to assess the level of specific anti-senescent activity of the compounds.
as §1

[3] = tested on: AdMSC primary adipose-derived mesenchymal stromal cells; assay: Anti-senescent cytotoxicity, senescent vs proliferating AdMSC; type: cell-based, Human; conditions: for IC50: Homo sapiens
[4] = tested on: SK-Mel-103 melanoma cells; assay: Anti-senescent cytotoxicity, senescent vs proliferating SK-Mel-103; type: cell-based, Human; conditions: for IC50: Homo sapiens
[5] = tested on: A549 lung adenocarcinoma cells; assay: Anti-senescent cytotoxicity, senescent vs proliferating A549; type: cell-based, Human; conditions: for IC50: Homo sapiens
[6] = tested on: chronologically aging mice; assay: Survival and frailty index of chronologically aging mice; type: in vivo, mouse; conditions: for survival rates vs control groups: OT-82: after 6 courses, 111 weeks of age, asenins: treated weeks 77-97, at 112 weeks of age
Description: FIG. 11. OT-82 effects on survival and frailty index of old mice. (A) Male and female mice were treated with OT-82 or with vehicle alone as a negative control. Survival was measured over the course of six treatments.
FIG. 12. Effects of asenins TA-3899 and TA-4812 on survival and frailty index of old mice. Results are provided on a background of FI of mice of the similar age, aged normally without any treatments (black color). Difference between FI of males receiving 3899 and intact mice is statistically significant (p=0.02).
Frailty Index (FI) was determined for individual mice as described previously (Antoch et al. Aging. 2017; 9: 1-12) using a 26 week-old group as a “young mouse” reference. For each mouse, various parameters were measured. These parameters include non-invasive measurements, including age, body weight, grip strength, diastolic blood pressure, and tail blood flow. Additional blood chemistry measurements were also determined, including white blood cell count, neutrophil count, neutrophil percentage, lymphocyte percentage, monocyte percentage, eosinophil percentage, red blood cell count, hemoglobin, hematocrit, mean corpuscular volume, mean corpuscular hemoglobin, mean corpuscular hemoglobin concentration, platelet count, and mean platelet volume. For each parameter mean value and standard deviation were calculated. Animals differing by more than one standard deviation (STDEV) from mean value in any single parameter were excluded from the reference group. Values for each measured parameter were compared with corresponding values for the reference group and assigned a score. The number of deficits an individual mouse expressed was calculated as a ratio of total number of parameters measured and this value is referred to as the frailty index.
Asenins TA-3899 and TA-4812 were evaluated for their effects on survival and frailty index in a model of chronologic aging mice. Treatment lasted for 20 weeks (weeks 77-97 of age). […] Frailty index of males was measured at week 109.

NF-κB = NF-κB luciferase reporter in HT1080 cells; type: cell-based; conditions: HT1080 cells carrying IPTG-inducible p21
[7] = tested on: p16(Ink4a) expression in adipose tissue macrophages; assay: Poly(I:C) in chronologically aged p16Ink4a/Luc mice; type: in vivo, mouse
Description: Given that macrophages contribute to the elevated p16(Ink4a) expression observed in aged mice, we investigated whether this expression was susceptible to immunomodulatory regulation. Chronologically aged mice (83-weeks old) were treated with Poly(I:C) and the luminescence of individual organs was quantitated via IVIS. […] Thus, the observed decrease in the luciferase signal in adipose tissue upon treatment with Poly(I:C) was not accompanied by the depletion of macrophages.

[8] = light or radiation study, senescent RDF, irradiation-induced, 72 hour exposure, resazurin, read-out: IC50 RDFsen.irr
[9] = proliferating RDF, 72 hour exposure, resazurin, read-out: IC50 RDFprolif
[10] = senescent RDF, bleomycin-induced, 72 hour exposure, resazurin, read-out: IC50 RDFsen.bleo

Work on `CCOC(=O)c1sc(SCc2ccccc2)c2c1CC(c1ccc(OC)cc1)C/C2=N\O` (stereo not drawn) [Example A1.1] yielded an IC50 ([1]; light or radiation study, mLF, senescence induction: Irradiation, read-out: Activity against Senescent Cells (IC50; uM)) of 4 µM, an IC50 ([1]; mLF proliferating, read-out: Activity against Proliferating Cells (IC50; uM)) of 10.6 µM and an IC50 ([1]; mLF, senescence induction: Bleomycin, read-out: Activity against Senescent Cells (IC50; uM)) of 7.1 µM. The “Selectivity (Prolif/Sen)” value ([1]; mLF, Bleomycin) was 1.5, the “Selectivity (Prolif/Sen)” value ([1]; mLF, Irradiation) was 2.7 and the “Selectivity (Prolif/Sen)” value ([2]; RDF, Bleomycin) was >4.6. The “Selectivity (Prolif/Sen)” value ([2]; RDF, Irradiation) was >4.4, the IC50 ([2]; light or radiation study, RDF, senescence induction: Irradiation, read-out: Activity against Senescent Cells (IC50; uM)) was 4.5 µM and the IC50 [2, 8] was < 5 µM. For the same compound, the IC50 ([2]; RDF proliferating, read-out: Activity against Proliferating Cells (IC50; uM)) was > 20 µM, the IC50 ([2]; RDF, senescence induction: Bleomycin, read-out: Activity against Senescent Cells (IC50; uM)) was 4.4 µM and the IC50 [2, 9] was > 20 µM. For the same compound, the IC50 [2, 10] was < 10 µM, the “Selectivity (Prolif/Sen)” value ([3]; AdMSC, Bleomycin) was 2.3 and the IC50 ([3]; AdMSC proliferating, read-out: Activity against Proliferating Cells (IC50; uM)) was 12.6 µM. For the same compound, the IC50 ([3]; AdMSC, senescence induction: Bleomycin, read-out: Activity against Senescent Cells (IC50; uM)) was 5.6 µM, the IC50 ([4]; SK-Mel-103, senescence induction: Bleomycin, read-out: Activity against Senescent Cells (IC50; uM)) was 5.6 µM and the IC50 ([4]; SK-Mel-103 proliferating, read-out: Activity against Proliferating Cells (IC50; uM)) was 18.5 µM. The “Selectivity (Prolif/Sen)” value ([4]; SK-Mel-103, Bleomycin) was 3.3, the “Selectivity (Prolif/Sen)” value ([5]; A549, Bleomycin) was 3.7 and the “Selectivity (Prolif/Sen)” value ([5]; A549, Irradiation) was 4.5. For the same compound, the IC50 ([5]; light or radiation study, A549, senescence induction: Irradiation, read-out: Activity against Senescent Cells (IC50; uM)) was 3.7 µM, the IC50 ([5]; A549, senescence induction: Bleomycin, read-out: Activity against Senescent Cells (IC50; uM)) was 4.5 µM and the IC50 ([5]; A549 proliferating, read-out: Activity against Proliferating Cells (IC50; uM)) was 16.5 µM.

With `COc1ccc(C2CC(=NO)c3c(SCc4ccccc4)sc(C(=O)NCc4cccc(F)c4)c3C2)cc1` (stereo not drawn) [Example A1.6, 3-(Benzylthio)-N-(3-fluorobenzyl)-4-(hydroxyimino)-6-(4-methoxyphenyl)-4,5,6,7-tetrahydrobenzo[c]thiophene-1-carboxamide] the “survival rates vs control groups” value [6] was “no statistical significance”, the IC50 [2, 8] was < 5 µM and the IC50 [2, 9] was > 20 µM. The IC50 [2, 10] was < 5 µM.

In the case of `O=C(NCCCc1cn[nH]c1)c1ccc(-c2ccncc2)c(C#Cc2ccc(F)cc2)c1` [OT-82], the “survival rates vs control groups” value [6] is reported as “no effects on survival rates”, the “frailty index (FI) of males” value ([6]; OT-82, chronically aged mice) is reported as “positive effects” and the “survival of treated males” value ([6]; after 6 courses of treatment, 111 weeks of age (55% in vehicle control group)) is reported as 45%. For the same compound, the “survival of treated females” value ([6]; after 6 courses of treatment, 111 weeks of age (60% in vehicle group)) was 65% and the “basal and inducible activity of NF-κB” value (NF-κB) was “inhibits both basal and inducible activity”.

For Poly(I:C), the “luminescence of other tissues (spleen, lungs, kidney, liver)” value ([7]; 83-weeks old mice) was “no significant effects”, the “reduction in luminescence from visceral adipose tissue” value ([7]; 83-weeks old mice, IVIS of organs) was ~4 fold and the “luciferase activity from isolated stromal vascular fraction vs saline” value ([7]; per cell or per gram of fat) was “significantly decreased”.
